Experimental data as given in patent US10231453B2, “5-substituted imidazole derivatives” (BAYER CROPSCIENCE AKTIENGESELLSCHAFT, priority 2015, dated 2019).
Read-outs that look alike come from different tables or passages of the source.

Legend:
Fusarium culmorum = experiment: In vivo preventive Fusarium culmorum test (wheat), Example L; details: 120 h, 500 ppm of active ingredient, preventive spray, evaluated 5 days after inoculation, read-out: efficacy
Experimental: After the spray coating has been dried, the plants are slightly injured by using a sandblast and afterwards they are sprayed with a conidia suspension of Fusarium culmorum.
The test is evaluated 5 days after the inoculation.

Puccinia recondita = experiment: In vivo preventive test on Puccinia recondita (brown rust on wheat), Examples C and R3; details: Puccinia recondita, 264 h, preventive spray, evaluated 11 days after inoculation
Leptosphaeria nodorum = experiment: In vivo preventive Leptosphaeria nodorum test (wheat), Example N; details: Parastagonospora nodorum, 192 h, 500 ppm of active ingredient, preventive spray, evaluated 8 days after inoculation, read-out: efficacy
Source text: After the spray coating has been dried, the plants are sprayed with a spore suspension of Leptosphaeria nodorum.

Venturia inaequalis = experiment: In vivo preventive Venturia test (apples), Example J; details: 240 h, read-out: efficacy
Experimental: After the spray coating has dried on, the plants are inoculated with an aqueous conidia suspension of the causal agent of apple scab (Venturia inaequalis) and then remain for 1 day in an incubation cabinet at approximately 20° C. and a relative atmospheric humidity of 100%.
The plants are then placed in a greenhouse at approximately 21° C. and a relative atmospheric humidity of approximately 90%.
The test is evaluated 10 days after the inoculation.

Phakopsora pachyrhizi = experiment: In vivo preventive Phakopsora test (soybeans), Example I; details: 168 h, 100 ppm of active ingredient, preventive spray, evaluated 7 days after inoculation, read-out: efficacy
Septoria tritici = experiment: In vivo preventive test on Septoria tritici (leaf spot on wheat), Examples E, Q3 and R5; details: Zymoseptoria tritici, 576 h, preventive spray, evaluated 24 days after inoculation
[1] = test system: Fusarium nivale (var. majus); experiment: In vivo preventive Fusarium nivale (var. majus) test (wheat), Example O; details: Microdochium nivale, 120 h, 500 ppm of active ingredient, preventive spray, evaluated 5 days after inoculation, read-out: efficacy
Source text: After the spray coating has been dried, the plants are slightly injured by using a sandblast and afterwards they are sprayed with a conidia suspension of Fusarium nivale (var. majus).

Uromyces appendiculatus = experiment: In vivo preventive test on Uromyces appendiculatus (bean rust), Examples G and R7; details: 264 h, preventive spray, evaluated 11 days after inoculation
Alternaria solani = experiment: In vivo preventive Alternaria test (tomatoes), Example H; details: 72 h, 100 ppm of active ingredient, preventive spray, evaluated 3 days after inoculation, read-out: efficacy
Sphaerotheca fuliginea = experiment: In vivo preventive test on Sphaerotheca fuliginea (powdery mildew on cucurbits), Examples F and R6; details: Podosphaera fuliginea, 360 h, preventive spray, evaluated 15 days after inoculation
Pyricularia oryzae = experiment: whole plant or invertebrate; format: in vivo; details: 192 h, read-out: efficacy
[2] = Measurement of LogP values by HPLC on reversed phase columns (EEC directive 79/831 Annex V.A8); format: physicochemical; details: method [a]: LC-UV, acidic range, 0.1% formic acid in water and acetonitrile as eluent; Table 1
Experimental: Measurement of Log P values was performed as outlined above.

[3] = test system: Blumeria graminis fsp. hordei; experiment: In vivo preventive Blumeria test (barley), Example K; details: 168 h, 500 ppm of active ingredient, preventive spray, evaluated 7 days after inoculation, read-out: efficacy
Source text: After the spray coating has been dried, the plants are dusted with spores of Blumeria graminis fsp. hordei.

Pyrenophora teres = experiment: In vivo preventive test on Pyrenophora teres (net blotch on barley), Examples D, Q2 and R4; details: Pyrenophora teres, 336 h
Botrytis cinerea = experiment: In vivo preventive test on Botrytis cinerea (grey mould) on gherkin, Examples B, Q1 and R2; details: Botrytis cinerea
Fusarium graminearum = experiment: whole plant or invertebrate; format: in vivo; details: in Hordeum vulgare, 120 h, read-out: efficacy
[4] = 500 ppm of active ingredient, wheat, read-out: efficacy
[5] = 500 ppm of active ingredient, bean, read-out: efficacy
[6] = 500 ppm of active ingredient, gherkin, read-out: efficacy
[7] = 500 ppm of active ingredient, preventive spray, evaluated 14 days after inoculation, read-out: efficacy
[8] = 500 ppm of active ingredient, preventive spray, evaluated 4 to 5 days after inoculation, read-out: efficacy

C#Cc1cncn1CC(O)(Cc1ccccc1F)C1(Cl)CC1 (stereo not drawn) [Example I-36]
80 to 89%: pest or weed control at 500 ppm (Fusarium culmorum) | pest or weed control at 500 ppm (Leptosphaeria nodorum)
83%: pest or weed control at 100 ppm (Septoria tritici; Example R5, wheat, 100 ppm, read-out: Efficacy in %)
90 to 100%: pest or weed control at 500 ppm (Puccinia recondita; [4]) | pest or weed control at 100 ppm (Venturia inaequalis) | pest or weed control at 100 ppm (Phakopsora pachyrhizi) | pest or weed control at 500 ppm (Septoria tritici; [4]) | pest or weed control at 500 ppm [1] | pest or weed control at 500 ppm (Uromyces appendiculatus; [5]) | pest or weed control at 100 ppm (Alternaria solani) | pest or weed control at 500 ppm (Sphaerotheca fuliginea; [6]) | pest or weed control at 500 ppm (Pyricularia oryzae) | pest or weed control at 500 ppm [3] | pest or weed control at 500 ppm (Pyrenophora teres; [7]) | pest or weed control at 500 ppm (Botrytis cinerea; [8])
100%: pest or weed control at 100 ppm (Uromyces appendiculatus; Example R7, bean, 100 ppm, read-out: Efficacy in %) | pest or weed control at 500 ppm (Uromyces appendiculatus; Example R7, bean, 500 ppm, read-out: Efficacy in %) | pest or weed control at 100 ppm (Sphaerotheca fuliginea; Example R6, gherkin, 100 ppm, read-out: Efficacy in %) | pest or weed control at 500 ppm (Sphaerotheca fuliginea; Example R6, gherkin, 500 ppm, read-out: Efficacy in %) | pest or weed control at 100 ppm (Botrytis cinerea; Example R2, rate of application 100 ppm, read-out: Efficacy in %) | pest or weed control at 500 ppm (Botrytis cinerea; Example R2, rate of application 500 ppm, read-out: Efficacy in %)
94%: pest or weed control at 500 ppm (Puccinia recondita; Example R3, wheat, 500 ppm, read-out: Efficacy in %)
1.89: chromatographic logP [2]
89%: pest or weed control at 100 ppm (Puccinia recondita; Example R3, wheat, 100 ppm, read-out: Efficacy in %)
93%: pest or weed control at 500 ppm (Pyrenophora teres; Example R4, rate of application 500 ppm, read-out: Efficacy in %)
75%: pest or weed control at 500 ppm (Septoria tritici; Example R5, wheat, 500 ppm, read-out: Efficacy in %)
57%: pest or weed control at 100 ppm (Pyrenophora teres; Example R4, rate of application 100 ppm, read-out: Efficacy in %)

C#Cc1cncn1CC(O)(Cc1ccccc1Cl)C1(Cl)CC1 (stereo not drawn) [Example I-38]
80 to 89%: pest or weed control at 500 ppm (Fusarium culmorum) | pest or weed control at 500 ppm (Puccinia recondita; [4]) | pest or weed control at 500 ppm (Leptosphaeria nodorum) | pest or weed control at 500 ppm (Pyrenophora teres; [7])
90 to 100%: pest or weed control at 100 ppm (Venturia inaequalis) | pest or weed control at 100 ppm (Phakopsora pachyrhizi) | pest or weed control at 500 ppm (Septoria tritici; [4]) | pest or weed control at 500 ppm [1] | pest or weed control at 500 ppm (Uromyces appendiculatus; [5]) | pest or weed control at 100 ppm (Alternaria solani) | pest or weed control at 500 ppm (Sphaerotheca fuliginea; [6]) | pest or weed control at 500 ppm (Pyricularia oryzae) | pest or weed control at 500 ppm [3] | pest or weed control at 500 ppm (Botrytis cinerea; [8])
2.09: chromatographic logP [2]

OC(Cc1ccccc1)(Cn1cncc1Cl)C1(Cl)CC1 (stereo not drawn) [Example I-39]
2.04: chromatographic logP [2]
70 to 79%: pest or weed control at 500 ppm (Leptosphaeria nodorum) | pest or weed control at 500 ppm [1] | pest or weed control at 500 ppm (Pyricularia oryzae)
90 to 100%: pest or weed control at 500 ppm (Fusarium culmorum) | pest or weed control at 500 ppm (Puccinia recondita; [4]) | pest or weed control at 100 ppm (Phakopsora pachyrhizi) | pest or weed control at 500 ppm (Septoria tritici; [4]) | pest or weed control at 500 ppm (Uromyces appendiculatus; [5]) | pest or weed control at 100 ppm (Alternaria solani) | pest or weed control at 500 ppm (Sphaerotheca fuliginea; [6]) | pest or weed control at 500 ppm [3] | pest or weed control at 500 ppm (Fusarium graminearum) | pest or weed control at 500 ppm (Pyrenophora teres; [7]) | pest or weed control at 500 ppm (Botrytis cinerea; [8])

N#Cc1cncn1CC(O)(Cc1cccc(F)c1F)C1(F)CC1 (stereo not drawn) [Example I-95]
80 to 89%: pest or weed control at 500 ppm (Leptosphaeria nodorum) | pest or weed control at 100 ppm (Venturia inaequalis) | pest or weed control at 500 ppm (Pyrenophora teres; [7])
2.37: chromatographic logP [2]
90 to 100%: pest or weed control at 500 ppm (Fusarium culmorum) | pest or weed control at 500 ppm (Puccinia recondita; [4]) | pest or weed control at 100 ppm (Phakopsora pachyrhizi) | pest or weed control at 500 ppm (Septoria tritici; [4]) | pest or weed control at 500 ppm [1] | pest or weed control at 500 ppm (Uromyces appendiculatus; [5]) | pest or weed control at 100 ppm (Alternaria solani) | pest or weed control at 500 ppm (Sphaerotheca fuliginea; [6]) | pest or weed control at 500 ppm [3] | pest or weed control at 500 ppm (Fusarium graminearum)
70 to 79%: pest or weed control at 500 ppm (Pyricularia oryzae)
